Laboratory results published in article PMC10279719 (Nature Communications, 2023).

Key:
CrkII^NSH3 [1] = target: T1, CrkII^NSH3 (Homo sapiens, UniProt P46108); assay: SPR, CrkII NSH3 binding to immobilised PEAK proteins; details: read-out: CrkII NSH3 SPR KD; interactor as analyte over biotinylated PEAK protein captured with biotin CAPture kit; Biacore 8K+, HBS-TP, 20 °C; steady-state fit; mean ± SD (N = 2); read-out: CrkII-SH2 SPR KD
T1 construct: CrkII^NSH3; UniProt P46108-1, residues 134–191; 8-His tag with TEV protease cleavage site (N); made in house; host or cells: E. coli C41 (DE3)
Procedure: (§1) SPR binding studies of PEAK PRM peptides to CrkII^NSH3 were performed using a Biacore S200 Instrument (Cytiva). Purified CrkII^NSH3 was diluted to 5 µg ml^−1 in 10 mM sodium acetate pH 4.0 and amine coupled at 25 °C to a Series S CM5 sensor chip, in HBS-N running buffer (20 mM HEPES pH 7.4, 150 mM NaCl) to a final immobilization level of 1100–1400 response units (RU), followed by surface deactivation using 1 M ethanolamine. A blank activation/deactivation was used for the reference surface. Peptide binding studies were performed at 20 °C in HBS-TP running buffer (20 mM HEPES pH 7.4, 150 mM NaCl, 1 mM TCEP, 0.005% (v/v) Tween-P20). […] Peptide stocks were further diluted to in running buffer to 10 or 20 µM and prepared as a 11-point concentration series (2-fold serial dilution, […] for PEAK PRM peptides, or 20 µM–20 nM for PEAK tandem motif peptides). Samples were injected in a multi-cycle run (flow rate 30 µl min^−1, contact time of 60 s, dissociation 120 s) without regeneration. Sensorgrams were double referenced, and steady-state binding data fitted using a 1:1 binding model using Biacore S200 Evaluation Software (Cytiva, v. 1.1).
(§2) SPR binding studies of PEAK proteins to full length CrkII/Grb2 and sub-domains were performed using a Biacore 8K+ Instrument (Cytiva) and analyzed using Biacore Insight Evaluation Software (v. 3.0.12.15655). […] Binding studies and steady-state data analysis were performed as described for CrkII^NSH3 with the inclusion of an additional surface regeneration step (60 s injection of 1 M NaCl) between cycles.

CrkII^SH2 = target: T2, CrkII^SH2 (Homo sapiens, UniProt P46108); assay: SPR, CrkII SH2 binding to immobilised PEAK proteins; details: interactor as analyte over biotinylated PEAK protein (biotin CAPture); Biacore 8K+, HBS-TP with 500 mM NaCl, 20 °C; steady-state fit; mean ± S.E.M. (N = 3)
T2 construct: CrkII^SH2; UniProt P46108-1, residues 6–120; 8-His tag with TEV protease cleavage site (N); made in house; host or cells: E. coli C41 (DE3)
Procedure: as §1, §2

14-3-3ɣ = assay: SPR, 14-3-3ɣ binding to immobilised PEAK proteins; parameters: species or system human; details: 14-3-3ɣ analyte 0.46–1000 nM, multi-cycle, over immobilised biotinylated PEAK protein; Biacore 8K+, 20 °C; KD only an estimate (bivalent analyte model); N = 3
Procedure: PEAK proteins and adapters proteins (full length or individual domains) were biotinylated using EZ-Link™ NHS-PEG4-Biotin (Thermo Fisher) at a 1:1 molar ratio (100 µM) for 1 h at room temperature, then excess biotin was removed by buffer exchange using a Zeba™ Spin Desalting Column (Thermo Fisher) into HBS-T buffer (20 mM HEPES pH 7.4, 150 mM NaCl, 1 mM TCEP).
SPR binding studies of PEAK proteins to full length CrkII/Grb2 and sub-domains were performed using a Biacore 8K+ Instrument (Cytiva) and analyzed using Biacore Insight Evaluation Software (v. 3.0.12.15655). […] Biotinylated PEAK proteins (with or without Src phosphorylation; 500 nM in HBS-TP) were immobilized using a biotin CAPture kit (Cytiva) in HBS-TP running buffer at 20 °C. Binding studies and steady-state data analysis were performed as described for CrkII^NSH3 with the inclusion of an additional surface regeneration step (60 s injection of 1 M NaCl) between cycles. For Grb2^FL, Grb2^SH2, CrkII^SH2, CrkII^FL monomer and CrkII^FL dimer, to reduce nonspecific interactions the HBS-TP running buffer was supplemented with additional NaCl to a final concentration of 500 mM.
Binding studies for 14-3-3ɣ were undertaken in the same way in multi cycle mode (8 point, 3-fold serial dilution series, 0.46–1000 nM, 60 s contact time, 300 s dissociation).

14-3-3ε = target: T3, 14-3-3ε (Homo sapiens, UniProt P62258); assay: SPR, PEAK tandem peptides binding to immobilised 14-3-3ε; details: peptide analyte over amine-coupled 14-3-3ε (CM5); Biacore S200, HBS-TP pH 7.4, 20 °C; steady-state 1:1 fit; mean ± S.E.M.; read-out: SPR KD, 14-3-3ε (epsilon)
T3 construct: 14-3-3ε (UniProt P62258-1; residues 1–255); 8-His tag with TEV protease cleavage site (N); made in house; host or cells: E. coli C41 (DE3)
T3 sequence (P62258 1-255): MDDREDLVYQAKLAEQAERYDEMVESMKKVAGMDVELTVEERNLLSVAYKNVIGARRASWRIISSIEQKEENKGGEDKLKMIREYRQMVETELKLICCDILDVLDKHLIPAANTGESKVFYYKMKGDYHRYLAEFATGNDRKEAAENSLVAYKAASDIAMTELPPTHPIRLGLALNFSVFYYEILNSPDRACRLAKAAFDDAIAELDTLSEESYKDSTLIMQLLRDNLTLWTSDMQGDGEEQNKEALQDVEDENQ
Procedure: Purified […]3 was diluted to 5 μg ml^-1 in 10 mM sodium acetate pH 4.0 and amine coupled at 25 °C to a Series S CM5 sensor chip, in HBS-N running buffer (20 mM HEPES pH 7.4, 150 mM NaCl) to a final immobilization level of 1100-1400 response units (RU), followed by surface deactivation using 1 M ethanolamine. A blank activation/deactivation was used for the reference surface. […] PEAK PRM peptides: […] Samples were injected in a multi-cycle run (flow rate 30 μl min^-1, contact time of 60 s, dissociation 120 s) without regeneration. Sensorgrams were double referenced, and steady-state binding data fitted using a 1:1 binding model using Biacore S200 Evaluation Software (Cytiva, v. 1.1). […] Representative sensorgrams and fitted dissociation constant (KD) values, depicted as mean ± S.E.M.

14-3-3γ = target: T4, 14-3-3γ (Homo sapiens, UniProt P61981); assay: SPR, PEAK peptides binding to immobilised 14-3-3γ; details: peptide analyte over amine-coupled 14-3-3γ (CM5); Biacore S200, HBS-TP pH 7.4, 20 °C; steady-state 1:1 fit; mean ± S.E.M.
T4 construct: 14-3-3γ (UniProt P61981-1; residues 1–247); 8-His tag with TEV protease cleavage site (N); made in house; host or cells: E. coli C41 (DE3)
T4 sequence (P61981 1-247): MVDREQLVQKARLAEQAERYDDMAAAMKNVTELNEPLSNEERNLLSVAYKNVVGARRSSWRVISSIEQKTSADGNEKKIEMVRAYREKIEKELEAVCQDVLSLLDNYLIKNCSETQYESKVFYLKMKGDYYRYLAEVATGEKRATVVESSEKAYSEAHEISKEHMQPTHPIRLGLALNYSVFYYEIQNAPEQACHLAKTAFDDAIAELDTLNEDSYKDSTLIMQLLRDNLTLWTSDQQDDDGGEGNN
Procedure: (§3) Purified […]3 was diluted to 5 μg ml^-1 in 10 mM sodium acetate pH 4.0 and amine coupled at 25 °C to a Series S CM5 sensor chip, in HBS-N running buffer (20 mM HEPES pH 7.4, 150 mM NaCl) to a final immobilization level of 1100-1400 response units (RU), followed by surface deactivation using 1 M ethanolamine. A blank activation/deactivation was used for the reference surface. […] Samples were injected in a multi-cycle run (flow rate 30 μl min^-1, contact time of 60 s, dissociation 120 s) without regeneration. Sensorgrams were double referenced, and steady-state binding data fitted using a 1:1 binding model using Biacore S200 Evaluation Software (Cytiva, v. 1.1). […] Representative sensorgrams and fitted dissociation constant (KD) values, depicted as mean ± S.E.M.

CrkII^NSH3 [2] = target: T1, CrkII^NSH3; assay: ITC, CrkII NSH3 titrated into PEAK3 tandem peptides (binary) or peptide:14-3-3γ complexes (ternary); assay type: binding; details: individual run, repeat 1, CrkII N-SH3 400 µM into the labelled complex 16.8 µM (Titrations 10, 12, 16)
Procedure: ITC binding experiments were conducted using a MicroCal iTC200 instrument (Malvern Instruments). Titrations were conducted at 25 °C in reverse mode (peptide in cell, protein in syringe) and consisted of 19 injections of 2 μl […] at a rate of 2 s μl^−1 at 90 s time intervals, whilst stirring at 1000 rpm. An initial injection of 0.4 μl protein was made and discarded during data analysis. Proteins (14-3-3ɣ or CrkII^NSH3) were first dialyzed overnight at 4 °C into ITC buffer (20 mM HEPES pH 7.4, 150 mM NaCl, 1 mM TCEP), filtered and degassed under vacuum. […] Following the first titration, excess solution was removed from the cell, and the syringe was washed and dried. […] All data were fitted to a single binding site model to obtain the stoichiometry (N), dissociation constant (KD) and the enthalpy of binding (ΔH), using MicroCal PEAQ-ITC Analysis software (v.1.41).

14-3-3η = target: T5, 14-3-3η (Homo sapiens, UniProt Q04917); assay: SPR, PEAK tandem peptides binding to immobilised 14-3-3η; details: peptide analyte over amine-coupled 14-3-3η (CM5); Biacore S200, HBS-TP pH 7.4, 20 °C; steady-state 1:1 fit; mean ± S.E.M.; read-out: SPR KD, 14-3-3η (eta)
T5 construct: 14-3-3η (UniProt Q04917-1; residues 1–246); 8-His tag with TEV protease cleavage site (N); made in house; host or cells: E. coli C41 (DE3)
T5 sequence (Q04917 1-246): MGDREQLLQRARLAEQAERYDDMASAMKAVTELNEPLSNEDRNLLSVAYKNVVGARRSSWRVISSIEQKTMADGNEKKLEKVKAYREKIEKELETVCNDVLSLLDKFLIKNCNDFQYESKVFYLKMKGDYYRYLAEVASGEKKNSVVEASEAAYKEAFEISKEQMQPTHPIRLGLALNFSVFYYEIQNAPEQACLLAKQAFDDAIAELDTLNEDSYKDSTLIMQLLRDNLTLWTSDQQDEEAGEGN
Procedure: as §3

T1 sequence (P46108 134-191): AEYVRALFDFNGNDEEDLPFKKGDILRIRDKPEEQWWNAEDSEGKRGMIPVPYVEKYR
T2 sequence (P46108 6-120): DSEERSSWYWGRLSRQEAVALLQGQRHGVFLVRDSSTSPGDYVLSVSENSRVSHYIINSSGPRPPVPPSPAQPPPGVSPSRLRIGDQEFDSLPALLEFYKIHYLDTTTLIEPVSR

For “PEAK3-FL: full length human PEAK3 (1–473) from insect cells, S69 phosphorylated, purified as 14-3-3 complex”, the Kd (CrkII^NSH3 [1]) was 3.87 µM, the “SPR KD, CrkII-SH2” value (CrkII^SH2) was “No binding” and the Kd (14-3-3ɣ) was less than 1000 nM. For the same molecule, the “SPR KD, 14-3-3ɣ” value (14-3-3ɣ) was “bound strongly”.
A Kd (14-3-3ε) of 0.78 µM was found for `CC[C@H](C)[C@H](NC(=O)[C@H](CCCCN)NC(=O)[C@H](CCCCN)NC(=O)[C@@H]1CCCN1C(=O)[C@H](CC(C)C)NC(=O)[C@@H]1CCCN1C(=O)[C@@H]1CCCN1C(=O)[C@@H]1CCCN1C(=O)[C@H](CC(C)C)NC(=O)[C@@H]1CCCN1C(C)=O)C(=O)N[C@@H](CC(C)C)C(=O)N[C@H](C(=O)N[C@@H](CCCNC(=N)N)C(=O)N[C@H](C(=O)N[C@@H](CCC(N)=O)C(=O)N[C@@H](COP(=O)(O)O)C(=O)N[C@@H](CC(C)C)C(=O)N1CCC[C@H]1C(=O)N[C@H](C(=O)N[C@@H](CCCNC(=N)N)C(=O)N[C@@H](CCCNC(=N)N)C(N)=O)[C@@H](C)O)[C@@H](C)O)[C@@H](C)O` (single isomer, unassigned) [PEAK3^tandem-pS69] in this work.
`CC[C@H](C)[C@H](NC(=O)[C@H](CCCCN)NC(=O)[C@H](CCCCN)NC(=O)[C@@H]1CCCN1C(=O)[C@H](CC(C)C)NC(=O)[C@@H]1CCCN1C(=O)[C@@H]1CCCN1C(=O)[C@@H]1CCCN1C(=O)[C@H](CC(C)C)NC(=O)[C@@H]1CCCN1C(C)=O)C(=O)N[C@@H](CC(C)C)C(=O)N[C@H](C(=O)N[C@@H](CCCNC(=N)N)C(N)=O)[C@@H](C)O` (single isomer, unassigned) [PEAK3^54–66] was tested, and the “SPR KD, 14-3-3γ (gamma)” value (14-3-3γ) was “No binding”.
For `CC[C@H](C)[C@H](NC(=O)[C@H](CCCCN)NC(=O)[C@H](CCCCN)NC(=O)[C@@H]1CCCN1C(=O)[C@H](CC(C)C)NC(=O)[C@@H]1CCCN1C(=O)[C@@H]1CCCN1C(=O)[C@@H]1CCCN1C(=O)[C@H](CC(C)C)NC(=O)[C@@H]1CCCN1C(C)=O)C(=O)N[C@@H](CC(C)C)C(=O)N[C@H](C(=O)N[C@@H](CCCNC(=N)N)C(=O)N[C@H](C(=O)N[C@@H](CCC(N)=O)C(=O)N[C@@H](COP(=O)(O)O)C(=O)N[C@@H](CC(C)C)C(=O)N1CCC[C@H]1C(=O)N[C@H](C(=O)N[C@@H](CCCNC(=N)N)C(=O)N[C@@H](CCCNC(=N)N)C(N)=O)[C@@H](C)O)[C@@H](C)O)[C@@H](C)O` (single isomer, unassigned) [PEAK3 tandem-pS69 : 14-3-3γ (K50E)], the “ITC -T∆S” value (CrkII^NSH3 [2]) was -13.5 kJ/mol, the “ITC N (sites)” value (CrkII^NSH3 [2]) was 0.69 and the “ITC ∆G” value (CrkII^NSH3 [2]) was -30.8 kJ/mol. For the same molecule, the “ITC ∆H” value (CrkII^NSH3 [2]) was -17.4 kJ/mol.
A Kd (14-3-3ε) of 7.4 µM and a Kd (14-3-3η) of 1900 nM were found for `CC[C@H](C)[C@H](NC(=O)[C@H](CCCCN)NC(=O)[C@H](CCCCN)NC(=O)[C@H](CCC(N)=O)NC(=O)[C@@H]1CCCN1C(=O)[C@H](CC(C)C)NC(=O)[C@@H]1CCCN1C(=O)[C@@H]1CCCN1C(=O)[C@@H]1CCCN1C(C)=O)C(=O)N[C@H](C(=O)N[C@@H](CO)C(=O)N[C@@H](CCCNC(=N)N)C(=O)N[C@@H](C)C(=O)N[C@@H](C)C(=O)N[C@@H](COP(=O)(O)O)C(=O)N[C@@H](CO)C(=O)N1CCC[C@H]1C(=O)N[C@@H](CC(=O)O)C(=O)NCC(=O)N[C@@H](Cc1ccccc1)C(N)=O)C(C)C` (single isomer, unassigned) [PEAK2^tandem-pS826] in this work.
